Where two headings read alike, the source gives them in different places. Marks after values point to notes of the source that are not given here. Where only a bound is given, the exact number is not on record here.

We go through 13 molecules from article PMC11351458, “Bioaffinity Ultrafiltration Combined with HPLC-ESI-qTOF-MS/MS for Screening Potential Bioactive Components from the Stems of Dendrobium fimbriatum and In Silico Analysis” (Antioxidants, 2024).

Test [1] addresses T1, acetylcholinesterase (AChE) (Electrophorus electricus, UniProt O42275).
T1 construct: purchased Sigma-Aldrich (St. Louis, MO, USA)
Description: biochemical. The note with it: read-out: IC50 AChE (converted). As for the experimental part: The acetylcholinesterase inhibitory assay was carried out applying a method described in reference. Briefly, 0.1 M sodium phosphate buffer (pH 8.0, 140 μL), DTNB (10 μL), sample (20 μL), and AChE solution (15 μL) were added to a 96-well microplate and incubated at room temperature for 10 min. Finally, the absorbance was detected with a spectrophotometer at 405 nm.
The acetylcholinesterase inhibitory effect was counted as follows (Asample and Acontrol represent the absorbance of the tested sample and control, respectively):Acetylcholinesterase inhibitory activity (%) = (Acontrol − Asample)/Acontrol × 100%

Test [2] in a line: ABTS cation radical scavenging activity. The conditions noted are these: 50% free radical scavenging; for EC50: isolated components, read-out: SC50 ABTS. As for the experimental part:
The ABTS cation radical scavenging effect was measured, as previously described by. […] The working solution was diluted by EtOH to reach the absorbance of 0.70 ± 0.02 at 740 nm for further experiments. Different concentrations (400, 200, 100, 50, and 25 µg/mL) of extracts or compounds (10 µL) were mixed with the working solution (190 μL). The mixture was incubated at room temperature for 6 min, and the antioxidant activity of the mixture was determined by the decrease in absorbance measured at 740 nm.

The next test addresses α-glucosidase. As to the kind of experiment: α-Glucosidase inhibitory activity assay. It is filed as biochemical. The note with it: isolated compounds. On the procedure:
To test the anti-α-glucosidase effect of each solvent extract and each component, a previously described method was used. […] The α-glucosidase solution was diluted to 1 U/mL with 0.1 M sodium phosphate buffer (pH 6.8). Various concentrations of extract or compound (100 µL) and α-glucosidase solution (20 µL) were mixed. Subsequently, 0.53 mM p-NPG (380 µL) was added and incubated at 37 °C for 40 min. The reaction was stopped by adding 500 μL of 0.1 M Na2CO3 solution, and the absorbance was detected at 405 nm.
α-glucosidase inhibition (%) was counted as follows (Asample and Acontrol represent the absorbance of the tested sample and control, respectively):α-glucosidase inhibition (%) = (Acontrol − Asample)/Acontrol × 100%

Test [3] is described as follows: DPPH radical scavenging activity. The note with it: 50% free radical scavenging; for EC50: isolated components, read-out: SC50 DPPH. As for the experimental part:
The DPPH radical scavenging effect was measured based on the reported method. BHT was applied as a positive control. DPPH solution was prepared diluted by EtOH to reach the final concentration of 400 µM. Different concentrations (400, 200, 100, 50, and 25 µg/mL) of extracts or compounds (100 µL) were mixed with DPPH solution (100 µL) and incubated for 30 min at room temperature and in darkness, and the absorbance of the mixture was measured at 520 nm.

In test [4] the target is T2, inducible nitric oxide synthase (iNOS) (Mus musculus, UniProt P29477).
T2 construct: purchased Sigma-Aldrich (St. Louis, MO, USA)
As to the kind of experiment: Bioaffinity ultrafiltration assay with inducible nitric oxide synthase. It is filed as binding. The note with it: components of EtOAc extract; EF = (A1 − A2)/A0 × 100%. As for the experimental part:
(§1) The bioaffinity ultrafiltration assay was conducted using a previously described procedure. […] The reaction was conducted at 37 °C for 30 min, then centrifuged using a 14,000× g ultracentrifuge filter at 30 °C for 15 min. The filtrate was removed and 200 μL of Tris-HCl buffer was added to the ultracentrifuge filter and centrifuged at 14,000× g for 15 min at 30 °C. The previous step was repeated 3 times and the filtrate was removed. Then, 200 μL of methanol was added to the ultracentrifuge filter and centrifuged at 14,000× g for 15 min at 30 °C. The previous step was repeated 3 times and the filtrate was collected. The filtrate was concentrated and then dissolved in 50 μL MeOH for HPLC analysis. In addition, the processing of iNOS-ligand complexes was conducted following previously reported methods, while inducible nitric oxide synthase bioaffinity ultrafiltration assays were performed, as detailed above.
(§2) The binding affinity of compounds and enzymes using enrichment factor (EF) was assessed, and was counted as follows: A1, A2, and A0 represent the peak areas of picked compounds acquired from the extracts incubated with activated, inactivated, and no acetylcholinesterase, respectively. EF (%) = (A1 − A2)/A0 × 100%

In test [5] the target is T1, acetylcholinesterase (AChE). As to the kind of experiment: Bioaffinity ultrafiltration assay with acetylcholinesterase. It is filed as binding. The conditions noted are these: components of EtOAc extract; EF = (A1 − A2)/A0 × 100%. As for the experimental part:
as §1, §2

The nature of test [6]: Ferric reducing antioxidant power (FRAP). The note with it: mM Trolox equivalents per g. As for the experimental part:
FRAP was measured by the method reported in the previous literature. The working solution was mixed with acetate buffer (pH 3.6), ferric chloride solution (20 mM), and TPTZ solution (10 mM TPTZ in 40 mM HCl) at a proportion of 10:1:1, respectively, and freshly prepared before being used. A total of 900 μL of the working solution was warmed to 37 °C and then mixed with 100 μL of the diluted sample, blank or standard, in a microcentrifuge tube. The tubes were vortexed in a dry bath at 37 °C for 40 min. The absorbance was measured at 593 nm. The standard curve was linear between 0 and 100 mM Trolox. Results were expressed as mM TE/g dry weight. Additional dilution was needed if the FRAP value measured was over the linear range of the standard curve.

For test [7], the system named is NO production in RAW 264.7 cells. Description: Nitric oxide (NO) inhibition assay. It is filed as cell-based, murine. The note with it: Mus musculus, RAW264.7, LPS-treated RAW 264.7 cells, read-out: NO Inhibition IC50. On the procedure: In this experiment, the RAW 264.7 macrophage cell line was used. The cells were stored at −196 °C in liquid nitrogen. After thawing, the cells were cultured in DMEM at 37 °C and 5% CO2 supplemented with 10% FBS, […] L-glutamine, 1 mM sodium pyruvate, 100 μg/mL streptomycin, and 100 U/mL penicillin.
NO inhibition assay was slightly modified from the reported method. The day before the experiment, RAW 264.7 cells were seeded into 96-well plates with 2 × 10^4 cells per well. The cells were pretreated with the sample solution, and then incubated at 37 °C for 1 h. After incubation, the cells were treated with 100 ng/mL of LPS to induce an inflammatory response. After incubation at 37 °C for 20 h, 50 μL of the supernatant was transferred from each well to another 96-well plate and mixed with an equal volume of Griess reagent. Finally, the absorbance was acquired at 550 nm after 20 min of incubation.

Test [8] is described as follows: Superoxide radical scavenging activity. The note with it: 50% free radical scavenging; for EC50: isolated components, read-out: SC50 Superoxide. On the procedure: A superoxide radical scavenging assay was performed based on previously reported methods. The superoxide radical was generated in 16 mM Tris-HCl buffer (pH 8.0) containing 50 μL of NBT (300 μM), 50 μL of PMS (120 μM), and 50 μL of different concentrations of the test sample. The reaction was initiated by adding 50 μL of NADH (468 μM) solution to the mixture. After incubating at room temperature for 5 min, the activity of samples was determined by the decrease in absorbance measured at 560 nm against the sample concentration.

For test [9], the system named is LPS-induced iNOS expression in RAW 264.7 murine macrophages. Description: Western blotting of LPS-induced iNOS expression. It is filed as cell-based. The conditions noted are these: 50 μM; LPS-induced RAW 264.7; Western blot. On the procedure:
Western blotting was conducted with the previous procedure. Cells were treated with different concentrations of compounds and 100 ng/mL of LPS for a day. After rinsing cells with cold PBS, proteins were harvested with radioimmunoprecipitation assay buffer (RIPA buffer) and stored at −20 °C for succeeding procedure. Proteins were separated on a 12.5% SDS-polyacrylamide gel and then electrophoretically transferred to a PVDF membrane. The membrane was soaked in 2% bovine serum albumin (BSA) blocking buffer for 2 h, then washed 2–3 times with TBST. Proteins were treated by particular primary antibodies and immersed overnight. The following day, PVDF membranes were washed with TBST to remove residual primary antibodies, and then immersed with secondary antibodies for 2 h. Then, enhanced chemiluminescence solution was coated on the membrane and visualized using an ImageQuant LAS 4000 Mini Biomolecular Imager (GE Healthcare, Marlborough, MA, USA). Finally, we quantified band density by ImageJ software 1.53a (BioTechniques, New York, NY, USA).

T1 sequence (O42275 24-633): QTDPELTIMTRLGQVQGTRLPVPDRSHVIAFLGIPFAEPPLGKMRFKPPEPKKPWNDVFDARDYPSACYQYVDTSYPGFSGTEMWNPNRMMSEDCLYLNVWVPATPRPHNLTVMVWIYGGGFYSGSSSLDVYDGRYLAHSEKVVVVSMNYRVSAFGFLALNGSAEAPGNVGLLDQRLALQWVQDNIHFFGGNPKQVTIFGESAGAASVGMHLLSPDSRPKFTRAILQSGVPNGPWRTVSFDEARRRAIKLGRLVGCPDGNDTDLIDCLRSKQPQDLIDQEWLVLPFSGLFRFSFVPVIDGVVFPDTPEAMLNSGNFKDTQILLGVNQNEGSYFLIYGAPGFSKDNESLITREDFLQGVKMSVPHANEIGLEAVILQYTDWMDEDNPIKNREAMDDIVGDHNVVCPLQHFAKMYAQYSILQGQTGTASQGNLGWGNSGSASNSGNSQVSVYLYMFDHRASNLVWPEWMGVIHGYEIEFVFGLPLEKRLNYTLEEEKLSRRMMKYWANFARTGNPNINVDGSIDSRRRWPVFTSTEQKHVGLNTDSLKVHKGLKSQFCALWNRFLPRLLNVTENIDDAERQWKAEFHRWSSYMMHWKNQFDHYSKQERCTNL

Turning to `COc1cc(O)cc(CCc2ccc(O)c(OC)c2)c1` [Gigantol (1), gigantol], the results for the half-inhibitory concentration (IC50) (in [1] (isolated compounds); against α-glucosidase; in test [7] (isolated components)) were 176 ± 19.1 µM, 470 ± 28.5 µM and 63.7 ± 11.4 µM, respectively. Further, the EC50 in test [2] is 12.2 ± 0.54 µM; in test [3] it was 35.2 ± 1.34 µM; in [8] it was > 400 µM. In test [4], the “iNOS EF (enrichment factor)” value came out at 44.84%. The “AChE EF (enrichment factor)” value in test [5] came to 54.60%. The “TE FRAP” value in test [6] (isolated components) is 1483.20 ± 63.49 ^c mM/g; in test [6] (isolated components, listed as gigantol) it was 1483.20 ± 63.49 mM/g.
On to `COc1ccc2c(c1)CCc1cc(O)cc(OC)c1-2` [Coelonin], for which the “iNOS EF (enrichment factor)” value in test [4] was found to be 5.09%. Further, the “AChE EF (enrichment factor)” value in test [5] came out at 2.00%.
For the molecule `O=C(/C=C/c1ccc(O)c(O)c1)O[C@@H]1C[C@](O)(C(=O)O)C[C@@H](O)[C@H]1O` [Chlorogenic acid, chlorogenic acid, reference compound], the IC50 was 236 ± 15.9 µM in [1] (isolated compounds) and 214 µM in test [1] (solvent extracts).
Regarding `Oc1ccc2c(c1)CCc1cc(O)cc(O)c1-2` [2,4,7-Trihydroxy-9,10-dihydrophenanthrene], the “iNOS EF (enrichment factor)” value in [4] is reported as 0.91%. In test [5], the “AChE EF (enrichment factor)” value turned out to be 1.32%.
Take `Cc1cc(C(C)(C)C)c(O)c(C(C)(C)C)c1` [BHT, butylated hydroxytoluene, reference compound]: the EC50 was 53.7 ± 1.48 µM in test [2] and 90.8 ± 5.65 µM in test [3]. Moreover, the “SC50 ABTS” value in test [2] (solvent extracts) is 46.83 ± 0.44 µg/mL. In addition, the “SC50 DPPH” value in test [3] (solvent extracts) was determined as 36.64 ± 2.22 µg/mL. Further, the “TE FRAP” value came to 4355.95 ± 99.23 mM/g in test [6] (isolated components) and 4296.98 ± 48.40 mM/g in test [6] (solvent extracts).
In the case of `O=c1c(O)c(-c2ccc(O)c(O)c2)oc2cc(O)cc(O)c12` [Quercetin, quercetin, reference compound], the IC50 worked out at 23.1 ± 1.43 µM in test [7] (isolated components) and 6.98 ± 0.43 µg/mL in test [7] (solvent extracts).
For `COc1cc(O)cc(CCc2cccc(O)c2)c1` [Batatasin III (3), batatasin III], the IC50 in [1] (isolated compounds) is 258 ± 18.5 µM; against α-glucosidase, 723 ± 53.5 µM; in test [7] (isolated components), 51.3 ± 5.51 µM. The EC50 in test [2] was 30.1 ± 1.7 µM; in test [3] it was > 400 µM; in [8], > 400 µM. In addition, the “iNOS EF (enrichment factor)” value in test [4] came out at 27.18%. The “AChE EF (enrichment factor)” value in test [5] is given as 31.87%. The “TE FRAP” value in test [6] (isolated components) is given as 559.67 ± 51.49 ^c mM/g; in test [6] (isolated components, listed as batatasin III) it was 559.67 ± 51.49 mM/g.
With `COc1cc(CCc2cc(OC)c(O)c(OC)c2)ccc1O` [Dendrophenol (4), dendrophenol], the half-maximal inhibitory concentration (IC50) in [1] (isolated compounds) was 165 ± 13.2 µM; on α-glucosidase it was 608 ± 48.2 µM; in [7] (isolated components) it was 14.3 ± 3.17 µM. In addition, the EC50 in test [2] is 7.64 ± 0.63 µM; in test [3] it was 11.6 ± 0.77 µM; in test [8] it was > 400 µM. Further, the “iNOS EF (enrichment factor)” value in test [4] is on record as 65.11%. In addition, the “AChE EF (enrichment factor)” value in test [5] came out at 59.48%. The “TE FRAP” value is given as 1686.53 ± 16.61 ^c mM/g in test [6] (isolated components) and 1686.53 ± 16.61 mM/g in test [6] (isolated components, listed as dendrophenol). Besides, in test [9], the “inhibition of iNOS expression” value is reported as 89.82%.
For `COc1c(O)cc2ccc3cc(O)ccc3c2c1OC` [Nudol], the “iNOS EF (enrichment factor)” value in test [4] is 24.39%. The “AChE EF (enrichment factor)” value in test [5] was 29.56%.
Consider `COc1ccc(CCc2cc(OC)c(OC)c(OC)c2)cc1O` [Erianin], for which the “iNOS EF (enrichment factor)” value in test [4] turned out to be 1.72%. Besides, the “AChE EF (enrichment factor)” value in test [5] stood at 0.23%.
Turning to `Oc1ccc(CCc2cc(O)cc(O)c2)cc1` [Dihydroresveratrol], in [4], the “iNOS EF (enrichment factor)” value was found to be 0.62%. In addition, in [5], the “AChE EF (enrichment factor)” value is recorded as 0.08%.
With `O=c1cc(-c2ccc(O)c(O)c2)oc2cc(O[C@@H]3O[C@H](CO)[C@@H](O)[C@H](O)[C@H]3O)cc(O)c12` [Cynaroside, cynaroside, reference compound], the EC50 in test [8] worked out at 50.6 ± 2.62 µM. The “SC50 Superoxide” value in test [8] (solvent extracts) was determined as 112.76 ± 5.84 µg/mL.
Turning to `COc1cc(CCc2cc(O)cc(O)c2)ccc1O` [Tristin], the “iNOS EF (enrichment factor)” value in test [4] is on record as 0.95%. In addition, in test [5], the “AChE EF (enrichment factor)” value stood at 5.83%.

By IC50 is commonly meant the concentration needed to halve the response being measured.
